Measured values as given in US11168073B2, “3,3-difluoroallylamines or salts thereof and pharmaceutical compositions comprising the same” (YUHAN CORPORATION, priority 2018, dated 2021).
Structures can show the parent of a compound that is named as a salt. Where two headings read alike, the source gives them in different places.

Tests used:
Format in all cases: biochemical
[1] = target: T1, recombinant human MAO-B (monoamine oxidase-B) (Homo sapiens, UniProt P27338); test: Activity evaluation on recombinant human MAO-B (Amplex Red/HRP-coupled assay, 1 mM benzylamine substrate); conditions: read-out: Inhibitory Activity (IC50, nM) MAO-B
T1 construct: purchased Sigma-Aldrich
T1 sequence (P27338 1-520): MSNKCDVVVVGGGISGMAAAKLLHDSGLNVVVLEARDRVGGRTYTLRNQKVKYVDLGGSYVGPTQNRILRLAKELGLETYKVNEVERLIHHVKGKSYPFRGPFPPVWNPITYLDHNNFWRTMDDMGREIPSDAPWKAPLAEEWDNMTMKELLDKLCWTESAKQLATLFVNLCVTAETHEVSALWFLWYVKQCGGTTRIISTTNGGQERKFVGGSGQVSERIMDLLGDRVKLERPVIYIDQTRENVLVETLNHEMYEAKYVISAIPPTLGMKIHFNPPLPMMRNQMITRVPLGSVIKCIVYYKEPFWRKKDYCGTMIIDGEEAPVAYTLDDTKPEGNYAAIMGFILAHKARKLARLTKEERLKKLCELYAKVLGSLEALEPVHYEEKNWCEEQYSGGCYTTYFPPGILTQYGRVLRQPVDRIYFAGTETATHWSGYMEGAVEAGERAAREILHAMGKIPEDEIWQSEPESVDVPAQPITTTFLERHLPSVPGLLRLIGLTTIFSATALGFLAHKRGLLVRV
Outline: (§1)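 Using an HRP-coupled Amplex Red readout (544/590 nm, kinetic over 1–2 h), IC50 values were fitted by 4-parameter logistic model to percent decrease in signal rate against DMSO control. Compounds (1:3 dilutions, 8 points, <1% DMSO) sat 30 min at 37 °C with enzyme in pH 7.4 phosphate buffer before substrate, 200 uM Amplex Red and HRP were added.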

[2] = target: T2, recombinant human MAO-A (monoamine oxidase-A) (Homo sapiens, UniProt P21397); test: Activity evaluation on recombinant human MAO-A (Amplex Red/HRP-coupled assay, 0.5 mM tyramine substrate); conditions: read-out: Inhibitory Activity (IC50, nM) MAO-A
T2 construct: purchased Sigma-Aldrich
T2 sequence (P21397 1-527): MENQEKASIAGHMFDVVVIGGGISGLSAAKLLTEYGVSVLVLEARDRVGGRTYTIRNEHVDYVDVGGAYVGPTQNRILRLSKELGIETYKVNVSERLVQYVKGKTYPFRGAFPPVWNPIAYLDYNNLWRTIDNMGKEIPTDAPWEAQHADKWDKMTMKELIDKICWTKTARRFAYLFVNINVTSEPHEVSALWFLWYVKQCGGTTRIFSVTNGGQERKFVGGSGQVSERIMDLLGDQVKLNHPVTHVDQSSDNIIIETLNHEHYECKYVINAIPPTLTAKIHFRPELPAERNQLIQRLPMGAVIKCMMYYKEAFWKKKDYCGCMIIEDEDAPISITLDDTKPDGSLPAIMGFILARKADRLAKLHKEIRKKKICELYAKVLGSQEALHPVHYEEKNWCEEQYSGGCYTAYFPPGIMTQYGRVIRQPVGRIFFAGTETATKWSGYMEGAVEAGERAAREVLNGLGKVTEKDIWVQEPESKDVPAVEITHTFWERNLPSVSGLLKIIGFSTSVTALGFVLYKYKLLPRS
Outline: as §1

[3] = target: T3, recombinant human DAO (diamine oxidase) (Homo sapiens, UniProt P19801); test: Activity evaluation on recombinant human DAO (Amplex Red/HRP-coupled assay, 1 mM putrescine substrate); conditions: read-out: Inhibitory Activity (IC50, nM) DAO
T3 construct: purchased R&D systems
T3 sequence (P19801 20-751): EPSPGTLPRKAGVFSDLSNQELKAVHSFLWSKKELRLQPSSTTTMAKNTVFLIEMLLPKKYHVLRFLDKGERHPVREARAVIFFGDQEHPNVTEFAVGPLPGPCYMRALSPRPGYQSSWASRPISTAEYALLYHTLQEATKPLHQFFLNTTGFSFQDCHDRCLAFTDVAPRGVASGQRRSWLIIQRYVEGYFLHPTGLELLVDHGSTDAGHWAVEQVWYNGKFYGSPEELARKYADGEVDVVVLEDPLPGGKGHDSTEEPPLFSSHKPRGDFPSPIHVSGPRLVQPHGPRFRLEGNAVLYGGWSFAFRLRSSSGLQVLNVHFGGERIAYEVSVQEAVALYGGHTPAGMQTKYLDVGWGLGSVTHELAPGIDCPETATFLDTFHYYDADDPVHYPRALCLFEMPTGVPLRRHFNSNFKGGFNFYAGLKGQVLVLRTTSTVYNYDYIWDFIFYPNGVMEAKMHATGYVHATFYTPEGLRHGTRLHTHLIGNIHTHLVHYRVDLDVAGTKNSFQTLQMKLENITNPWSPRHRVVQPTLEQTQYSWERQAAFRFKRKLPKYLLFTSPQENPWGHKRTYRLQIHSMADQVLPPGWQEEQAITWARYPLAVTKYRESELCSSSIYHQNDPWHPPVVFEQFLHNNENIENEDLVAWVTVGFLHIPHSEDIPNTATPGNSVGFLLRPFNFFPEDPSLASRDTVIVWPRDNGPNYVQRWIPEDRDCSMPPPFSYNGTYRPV
Outline: as §1

[4] = target: T4, recombinant human VAP-1 (Homo sapiens, UniProt Q16853); test: Activity evaluation on recombinant human VAP-1 (Amplex Red/HRP-coupled hydrogen peroxide assay, benzylamine substrate); conditions: read-out: Inhibitory Activity (IC50, nM) human VAP-1
T4 construct: purchased R&D systems
T4 sequence (Q16853 1-763): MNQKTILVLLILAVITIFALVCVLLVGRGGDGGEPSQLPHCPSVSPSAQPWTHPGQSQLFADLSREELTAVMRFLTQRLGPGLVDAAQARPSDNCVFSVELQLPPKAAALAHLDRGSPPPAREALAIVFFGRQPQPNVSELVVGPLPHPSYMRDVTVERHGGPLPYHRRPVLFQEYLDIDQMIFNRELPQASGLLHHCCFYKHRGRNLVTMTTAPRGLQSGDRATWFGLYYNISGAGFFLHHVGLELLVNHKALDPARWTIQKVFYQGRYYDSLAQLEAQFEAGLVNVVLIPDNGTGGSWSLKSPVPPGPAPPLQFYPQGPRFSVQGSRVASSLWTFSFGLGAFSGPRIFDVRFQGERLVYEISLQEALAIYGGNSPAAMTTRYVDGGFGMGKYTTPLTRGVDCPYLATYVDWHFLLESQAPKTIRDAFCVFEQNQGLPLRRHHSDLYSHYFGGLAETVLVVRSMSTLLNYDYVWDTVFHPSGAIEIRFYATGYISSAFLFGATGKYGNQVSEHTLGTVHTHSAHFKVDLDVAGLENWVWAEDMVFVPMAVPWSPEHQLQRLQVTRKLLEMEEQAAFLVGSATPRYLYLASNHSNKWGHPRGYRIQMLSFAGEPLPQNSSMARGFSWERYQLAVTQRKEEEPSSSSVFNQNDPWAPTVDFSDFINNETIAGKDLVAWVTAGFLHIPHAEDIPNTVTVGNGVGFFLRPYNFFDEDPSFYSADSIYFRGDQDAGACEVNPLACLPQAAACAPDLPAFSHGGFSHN
Outline: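 Hydrogen peroxide from benzylamine (1 mM) oxidation by human recombinant VAP-1 detected via HRP-coupled Amplex Red (200 uM) fluorescence, kinetic over 1–2 h. Enzyme and compound preincubated 30 min at 37 °C, pH 7.4 phosphate; 8-point dose response, signal-rate decrease versus DMSO control fitted to four-parameter logistic for IC50.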

[5] = recombinant human VAP-1, 30 min preincubation at 37° C., 1 mM benzylamine
[6] = recombinant human VAP-1, benzylamine substrate

IC50 ([1]; 1 mM benzylamine) [nM]	IC50 ([2]; 0.5 mM tyramine) [nM]	IC50 ([3]; 1 mM putrescine) [nM]	IC50 [4, 5] [nM]	IC50 ([1]; 1 mM benzylamine substrate) [nM]	IC50 ([2]; 0.5 mM tyramine substrate) [nM]	IC50 ([3]; 1 mM putrescine substrate) [nM]	IC50 [4, 6] [nM]	Structure (SMILES)
> 100000	> 100000	21000	4					Cc1cc(-c2ccc(S(C)(=O)=O)cc2)sc1Cn1cnn(CC(CN)=C(F)F)c1=O [Example 154, 2-[2-(aminomethyl)-3,3-difluoro-allyl]-4-[[3-methyl-5-(4-methylsulfonylphenyl)-2-thienyl]methyl]-1,2,4-triazol-3-one Trifluoroacetate]
> 100000	> 100000	490	1.6					CN(C)c1ccc(-c2cccc(-n3cnn(CC(CN)=C(F)F)c3=O)n2)cn1 [Example 49, 2-[2-(aminomethyl)-3,3-difluoro-allyl]-4-[6-[6-(dimethylamino)-3-pyridyl]-2-pyridyl]-1,2,4-triazol-3-one Trifluoroacetate]
> 100000	> 100000	> 100000	0.2					NCC(Cn1ncn(Cc2ccc(C#Cc3cnc4c(c3)NC(=O)CO4)s2)c1=O)=C(F)F [Example 169, 7-[2-[5-[[1-[2-(aminomethyl)-3,3-difluoro-allyl]-5-oxo-1,2,4-triazol-4-yl]methyl]-2-thienyl]ethynyl]-1H-pyrido[2,3-b][1,4]oxazin-2-one Trifluoroacetate]
8700	> 10000	> 100000	1.3					NCC(Cn1ncn(Cc2ccc(-c3cccc(-c4cc[nH]n4)c3)s2)c1=O)=C(F)F [Example 110, 2-[2-(aminomethyl)-3,3-difluoro-allyl]-4-[[5-[3-(1H-pyrazol-3-yl)phenyl]-2-thienyl]methyl]-1,2,4-triazol-3-one Trifluoroacetate]
> 100000	> 100000	52000	5.2					CCn1cc(-c2cc(C)c(Cn3cnn(CC(CN)=C(F)F)c3=O)s2)cn1 [Example 159, 2-[2-(aminomethyl)-3,3-difluoro-allyl]-4-[[5-(1-ethylpyrazol-4-yl)-3-methyl-2-thienyl]methyl]-1,2,4-triazol-3-one Trifluoroacetate]
				120000	> 100000	59000	2.3	Cc1cc(C#Cc2ccc3c(n2)OCCN3)cnc1-n1cnn(CC(CN)=C(F)F)c1=O [Example 246, 2-[2-(aminomethyl)-3,3-difluoro-allyl]-4-[5-[2-(2,3-dihydro-1H-pyrido[2,3-b][1,4]oxazin-6-yl)ethynyl]-3-methyl-2-pyridyl]-1,2,4-triazol-3-one ditrifluoroacetate]
				> 100000	> 100000	> 100000	0.6	CCn1cc(-c2ccc(Cn3cnn(CC(CN)=C(F)F)c3=O)cc2)ccc1=O [Example 270, 5-[4-[[1-[2-(aminomethyl)-3,3-difluoro-allyl]-5-oxo-1,2,4-triazol-4-yl]methyl]phenyl]-1-ethyl-pyridin-2-one Trifluoroacetate]
31000	> 100000	8400	0.4					NCC(Cn1ncn(Cc2ccc(C#Cc3ccc(N4CCOCC4)nc3)s2)c1=O)=C(F)F [Example 163, 2-[2-(aminomethyl)-3,3-difluoro-allyl]-4-[[5-[2-(6-morpholino-3-pyridyl)ethynyl]-2-thienyl]methyl]-1,2,4-triazol-3-one Trifluoroacetate]
28000	> 100000	520	0.6					Cc1cc(-c2cccc(-n3cnn(CC(CN)=C(F)F)c3=O)n2)cc2c1NC(=O)CC2 [Example 51, 6-[6-[1-[2-(aminomethyl)-3,3-difluoro-allyl]-5-oxo-1,2,4-triazol-4-yl]-2-pyridyl]-8-methyl-3,4-dihydro-1H-quinolin-2-one Trifluoroacetate]
> 100000	> 100000	79000	0.4					Cc1cc(-c2ccc(Cn3cnn(CC(CN)=C(F)F)c3=O)s2)cc2ccc(=O)[nH]c12 [Example 135, 6-[5-[[1-[2-(aminomethyl)-3,3-difluoro-allyl]-5-oxo-1,2,4-triazol-4-yl]methyl]-2-thienyl]-8-methyl-1H-quinolin-2-one Trifluoroacetate]
4800	> 100000	250	0.6					CN1C(=O)CCc2cc(-c3cc(-n4cnn(CC(CN)=C(F)F)c4=O)ccn3)ccc21 [Example 66, 6-[4-[1-[2-(aminomethyl)-3,3-difluoro-allyl]-5-oxo-1,2,4-triazol-4-yl]-2-pyridyl]-1-methyl-3,4-dihydroquinolin-2-one Trifluoroacetate]
				13700	> 100000	1500	1.1	CN(C)c1cc(-c2cccc(-n3cnn(CC(CN)=C(F)F)c3=O)n2)ccc1F [Example 217, 2-[2-(aminomethyl)-3,3-difluoro-allyl]-4-[6-[3-(dimethylamino)-4-fluoro-phenyl]-2-pyridyl]-1,2,4-triazol-3-one Trifluoroacetate]
